Patent publication US4705799A, “Aminomethyl oxooxazolidinyl benzenes useful as antibacterial agents” (E. I. Du Pont de Nemours and Company, priority 1985, dated 1987)
≈ marks a conversion by molar mass, not a printed value.

Experiments:
Staphylococcus aureus [1] = assay: In vivo efficacy of compounds administered subcutaneously in mouse intraperitoneal infections; details: sc, 168 h; mouse i.p. Staphylococcus aureus infection; subcutaneous; dosed at infection and 4 h post-infection; 7 days; read-out: ED50 (50 percent effective dose)
Escherichia coli [2] = assay: as above; details: sc, 168 h; mouse i.p. Escherichia coli infection; subcutaneous; dosed at infection and 4 h post-infection; 7 days; read-out: ED50 (50 percent effective dose)
Escherichia coli [3] = assay: In vitro broth dilution minimal inhibitory concentration (standard microdilution method); assay type: cell-based; details: Escherichia coli; Mueller-Hinton broth; 24-hour; read-out: Microdilution Broth MIC
[4] = tested on: Staphylococcus epidermidis; assay: as above; assay type: cell-based; details: 24 h, Mueller-Hinton broth, 24-hour, read-out: Microdilution Broth MIC
Staphylococcus aureus [5] = assay: In vivo efficacy of orally administered compounds in mouse intraperitoneal infections; details: Staphylococcus aureus, po, 168 h, mouse i.p. Staphylococcus aureus infection; oral; dosed at infection and 4 h post-infection; 7 days; read-out: ED50 (50 percent effective dose)
Escherichia coli [6] = assay: as above; details: 168 h; mouse i.p. Escherichia coli infection; oral; dosed at infection and 4 h post-infection; 7 days; read-out: ED50 (50 percent effective dose)

SMILES | ED50 (Staphylococcus aureus [1]) [mg/kg] | ED50 (Escherichia coli [2]) [mg/kg] | MIC (Escherichia coli [3]) [µg/mL] | MIC [4] [µg/mL] | ED50 (Staphylococcus aureus [5]) [mg/kg] | ED50 (Escherichia coli [6]) [mg/kg]
CCCCCCN(CC1CN(c2ccc(S(C)(=O)=O)cc2)C(=O)O1)C(C)=O (racemic) [Example 122, (dl)-N-Hexyl-N-[3-[4-(methylsulfonyl)phenyl]-2-oxooxazolidin-5-ylmethyl]acetamide] | 16.3 | > 120 | > 200 | > 200 | 48.4 | > 120
CC(=O)N(CC1CN(c2ccc(S(C)(=O)=O)cc2)C(=O)O1)C1CCCCC1 (racemic) [Example 124, (dl)-N-cyclohexyl-N-[3-[4-(methylsulfonyl)phenyl]-2-oxooxazolidin-5-ylmethyl]acetamide] | 16.3 | > 120 | > 200 | > 200 | 48.4 | > 120
CS(=O)(=O)c1ccc(N2CC(CNC(=O)C(Cl)Cl)OC2=O)cc1 (single isomer, unassigned) [Example 22, (l)-2,2-Dichloro-N-[3-[4-(methylsulfonyl)phenyl]-2-oxooxazolidin-5-ylmethyl]acetamide] | – | 11.8 | 9.4 (≈ 24.7 µM) | 2.4 (≈ 6.3 µM) | 14.2 | 71.1
CS(=O)(=O)NCC1CN(c2ccc(S(C)(=O)=O)cc2)C(=O)O1 (single isomer, unassigned) [Example 25, (l)-N-[3-[4-(Methylsulfonyl)phenyl]-2-oxooxazolidin-5-ylmethyl]methanesulfonamide] | 83.6 | > 100 | > 100 | 100 (≈ 287 µM) | > 360 | –
COC(=O)NCC1CN(c2ccc(S(C)(=O)=O)cc2)C(=O)O1 (single isomer, unassigned) [Example 26, (l)-N-[3-[4-(Methylsulfonyl)phenyl]-2-oxooxazolidin-5-ylmethyl]carbamic acid, methyl ester] | – | 40.7 | 100 (≈ 305 µM) | 6.3 (≈ 19.2 µM) | 1.7 | 56.2
NS(=O)(=O)c1ccc(N2CC(CNC(=O)C(Cl)Cl)OC2=O)cc1 (single isomer, unassigned) [Example 112, (l)-2,2-Dichloro-N-[3-[4-(aminosulfonyl)phenyl]-2-oxooxazolidin-5-ylmethyl]acetamide] | 14.4 | 62.7 | 50 (≈ 131 µM) | 12.5 (≈ 32.7 µM) | > 360 | > 360
CC(=O)NCC1CN(c2ccc(S(N)(=O)=O)cc2)C(=O)O1 (single isomer, unassigned) [Example 113, (l)-N-[3-[4-(Aminosulfonyl)phenyl]-2-oxooxazolidin-5-ylmethyl]acetamide] | 9.6 | 11.7 | 100 (≈ 319 µM) | 25 (≈ 79.8 µM) | 17.2 | 29.7
CC(=O)NCC1CN(c2ccc(S(=O)(=O)N=[N+]=[N-])cc2)C(=O)O1 (single isomer, unassigned) [Example 114, (l)-N-[3-(4-Azidosulfonylphenyl)-2-oxooxazolidin-5-ylmethyl]acetamide] | – | 12.5 | 200 (≈ 589 µM) | 200 (≈ 589 µM) | 15.3 | 10.5
CC(=O)NCC1CN(c2ccc([S+](C)[O-])cc2)C(=O)O1 (single isomer, unassigned) [Example 120, (l)-N-[3-[4-(Methylsulfinyl)phenyl]-2-oxooxazolidin-5-ylmethyl]acetamide] | 2.8 | 6.1 | > 200 | 10 (≈ 33.7 µM) | 3.3 | 11.1
CC(=O)NCC1CN(c2ccc(I)cc2)C(=O)O1 (single isomer, unassigned) [Example 145, (l)-N-[3-(4-Iodophenyl)-2-oxo-5-oxazolidinylmethyl]acetamide] | 12.2 | > 120 | > 200 | 12.5 (≈ 34.7 µM) | 50 | –
CC(=O)NCC1CN(c2ccc(C(C)=NO)cc2)C(=O)O1 (single isomer, unassigned) [Example 159, (l)-N-[3-(4-Acetylphenyl)-2-oxooxazolidin-5-ylmethyl]acetamide Oxime] | 1.1 | 71.9 | > 128 | 4 (≈ 13.7 µM) | 2.6 | –
CSCc1ccc(N2CC(CNC(C)=O)OC2=O)cc1 (single isomer, unassigned) [Example 163, (l)-N-[3-[4-(Methylthiomethyl)phenyl]-2-oxo-5-oxazolidinylmethyl]acetamide] | 3.2 | 33.3 | > 128 | 2 (≈ 6.79 µM) | 5.4 | –
CC(=O)NCC1CN(c2ccc(C[S+](C)[O-])cc2)C(=O)O1 (single isomer, unassigned) [Example 164, (l)-N-[3-[4-(Methylsulfinylmethyl)phenyl]-2-oxo-5-oxazolidinylmethyl]acetamide] | 9.4 | > 120 | > 128 | 16 (≈ 51.6 µM) | 14 | –
CC(=O)NCC1CN(c2ccc(C(=O)C[S+](C)[O-])cc2)C(=O)O1 (single isomer, unassigned) [Example 165, (l)-N-[3-[4-(Methylsulfinyl)acetylphenyl]-2-oxo-5-oxazolidinylmethyl]acetamide dihydrate] | 8.4 | > 120 | > 200 | 12.5 | 16.4 | –
CCC(=O)NCC1CN(c2ccc(C(C)=O)cc2)C(=O)O1 (single isomer, unassigned) [Example 171, (l)-N-[3-(4-Acetylphenyl)-2-oxo-5-oxazolidinylmethyl]propanamide] | 1.6 | 21.6 | > 128 | 4 (≈ 13.8 µM) | 3.3 | –
C#Cc1ccc(N2CC(CNC(C)=O)OC2=O)cc1 (single isomer, unassigned) [Example 182, (l)-N-[3-(4-Ethynylphenyl)-2-oxo-5-oxazolidinylmethyl]acetamide] | 7 | > 120 | > 128 | 16 (≈ 61.9 µM) | 16 | –
CC(C)(C)C(=O)NCC1CN(c2ccc(S(C)(=O)=O)cc2)C(=O)O1 (stereo not shown) [Example 30] | 57.4 | > 120 | > 200 | 200 (≈ 564 µM) | > 120 | –
COCC(=O)NCC1CN(c2ccc(S(C)(=O)=O)cc2)C(=O)O1 (stereo not shown) [Example 57] | – | 12.9 | 100 (≈ 292 µM) | 12.5 (≈ 36.5 µM) | 10.8 | 39
C=C(C)c1ccc(N2CC(CNC(C)=O)OC2=O)cc1 (stereo not shown) [Example 97] | 9.5 | > 120 | > 200 | 3.1 (≈ 11.3 µM) | 4.9 | –
CCCc1ccc(N2CC(CNC(C)=O)OC2=O)cc1 (stereo not shown) [Example 136] | < 4.4 | 100 | > 200 | 6.25 (≈ 22.6 µM) | – | 100
CC(=O)c1ccc(N2CC(CNC=O)OC2=O)cc1 (stereo not shown) [Example 173] | 4.5 | 79 | > 128 | 4 (≈ 15.3 µM) | 6.9 | –
CC(=O)c1ccc(N2CC(CNC(=O)CCl)OC2=O)cc1 (stereo not shown) [Example 174] | 12.2 | > 120 | 32 (≈ 103 µM) | 1 (≈ 3.22 µM) | 8.1 | –
CC(=O)c1ccc(N2CC(CNC(=O)CN=[N+]=[N-])OC2=O)cc1 (stereo not shown) [Example 175] | 8.2 | 73.5 | 128 (≈ 403 µM) | 4 (≈ 12.6 µM) | 6.6 | –
CC(=O)c1ccc(N2CC(CNC(N)=O)OC2=O)cc1 (stereo not shown) [Example 177] | 2.8 | 34 | > 128 | 4 (≈ 14.4 µM) | 3.7 | –
COC(=O)NCC1CN(c2ccc(C(C)=O)cc2)C(=O)O1 (stereo not shown) [Example 179] | 1.7 | 83.1 | 128 (≈ 438 µM) | 4 (≈ 13.7 µM) | 2 | –
